Test results: ChEMBL document CHEMBL4330138, “Discovery of new indole-based acylsulfonamide Nav1.7 inhibitors” (Bioorg Med Chem Lett, 2019)

Columns and labels:
[1] = biological target: T1, Sodium channel protein type 9 subunit alpha (Homo sapiens, UniProt Q15858); assay: Inhibition of human Nav1.7 at -60 mV holding potential by cell-based IonWorks barracuda automated electrophysiology method
Target sequence in this assay (Q15858 whole entry): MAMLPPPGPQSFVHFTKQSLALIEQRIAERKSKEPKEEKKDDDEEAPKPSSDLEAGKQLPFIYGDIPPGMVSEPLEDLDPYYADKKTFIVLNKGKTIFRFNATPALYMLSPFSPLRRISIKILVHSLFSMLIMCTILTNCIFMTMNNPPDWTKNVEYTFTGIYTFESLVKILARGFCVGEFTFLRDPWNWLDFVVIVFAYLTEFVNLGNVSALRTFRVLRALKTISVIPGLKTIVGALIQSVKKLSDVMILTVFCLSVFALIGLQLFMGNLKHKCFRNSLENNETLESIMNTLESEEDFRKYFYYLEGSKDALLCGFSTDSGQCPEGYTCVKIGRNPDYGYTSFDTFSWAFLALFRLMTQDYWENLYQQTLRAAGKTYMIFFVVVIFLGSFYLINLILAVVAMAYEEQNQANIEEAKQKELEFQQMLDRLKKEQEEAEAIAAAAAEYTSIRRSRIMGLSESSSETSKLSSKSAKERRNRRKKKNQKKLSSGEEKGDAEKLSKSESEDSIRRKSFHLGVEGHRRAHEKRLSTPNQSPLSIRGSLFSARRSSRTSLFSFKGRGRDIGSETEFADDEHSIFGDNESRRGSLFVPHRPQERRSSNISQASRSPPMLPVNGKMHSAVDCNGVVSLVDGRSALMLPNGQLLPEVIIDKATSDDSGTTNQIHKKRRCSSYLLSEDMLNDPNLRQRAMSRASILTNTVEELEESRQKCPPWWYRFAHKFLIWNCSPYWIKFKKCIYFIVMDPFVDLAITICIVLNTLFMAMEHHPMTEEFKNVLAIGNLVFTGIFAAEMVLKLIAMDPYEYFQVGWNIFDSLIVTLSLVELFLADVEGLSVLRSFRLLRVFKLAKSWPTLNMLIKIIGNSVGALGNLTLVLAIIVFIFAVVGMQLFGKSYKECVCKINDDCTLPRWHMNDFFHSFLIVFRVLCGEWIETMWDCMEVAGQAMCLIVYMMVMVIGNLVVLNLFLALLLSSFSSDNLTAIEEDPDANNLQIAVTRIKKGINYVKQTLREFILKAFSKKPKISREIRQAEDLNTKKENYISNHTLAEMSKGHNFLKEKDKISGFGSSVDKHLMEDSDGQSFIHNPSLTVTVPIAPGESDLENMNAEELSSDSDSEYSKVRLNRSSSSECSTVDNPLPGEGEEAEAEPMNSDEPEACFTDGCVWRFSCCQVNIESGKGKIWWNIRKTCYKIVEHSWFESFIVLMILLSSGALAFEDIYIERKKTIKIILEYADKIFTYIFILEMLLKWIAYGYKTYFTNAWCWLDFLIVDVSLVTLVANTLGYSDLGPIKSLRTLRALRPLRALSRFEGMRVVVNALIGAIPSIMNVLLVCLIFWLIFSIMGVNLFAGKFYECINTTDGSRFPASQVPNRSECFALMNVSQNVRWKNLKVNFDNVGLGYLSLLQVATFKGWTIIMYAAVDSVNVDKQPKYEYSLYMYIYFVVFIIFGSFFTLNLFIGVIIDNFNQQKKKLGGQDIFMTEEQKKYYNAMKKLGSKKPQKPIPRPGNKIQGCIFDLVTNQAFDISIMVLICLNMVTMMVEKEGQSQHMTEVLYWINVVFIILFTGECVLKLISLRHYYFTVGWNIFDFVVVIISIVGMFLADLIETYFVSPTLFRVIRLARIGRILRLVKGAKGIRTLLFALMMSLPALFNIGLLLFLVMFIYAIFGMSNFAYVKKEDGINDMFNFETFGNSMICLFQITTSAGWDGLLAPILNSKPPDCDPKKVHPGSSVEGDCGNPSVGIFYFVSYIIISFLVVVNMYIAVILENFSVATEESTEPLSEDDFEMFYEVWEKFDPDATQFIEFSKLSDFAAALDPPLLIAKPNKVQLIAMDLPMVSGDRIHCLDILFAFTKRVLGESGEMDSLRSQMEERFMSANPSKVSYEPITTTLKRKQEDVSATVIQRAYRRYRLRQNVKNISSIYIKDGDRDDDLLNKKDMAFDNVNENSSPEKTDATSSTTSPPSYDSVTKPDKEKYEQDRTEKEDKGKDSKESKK

[2] = biological target: Sodium channel protein type 5 subunit alpha (Homo sapiens, UniProt Q14524); assay: Inhibition of human Nav1.5 at -50 mV holding potential by cell-based IonWorks barracuda automated electrophysiology method; type: ADME
Chain of Sodium channel protein type 5 subunit alpha (Q14524 whole entry): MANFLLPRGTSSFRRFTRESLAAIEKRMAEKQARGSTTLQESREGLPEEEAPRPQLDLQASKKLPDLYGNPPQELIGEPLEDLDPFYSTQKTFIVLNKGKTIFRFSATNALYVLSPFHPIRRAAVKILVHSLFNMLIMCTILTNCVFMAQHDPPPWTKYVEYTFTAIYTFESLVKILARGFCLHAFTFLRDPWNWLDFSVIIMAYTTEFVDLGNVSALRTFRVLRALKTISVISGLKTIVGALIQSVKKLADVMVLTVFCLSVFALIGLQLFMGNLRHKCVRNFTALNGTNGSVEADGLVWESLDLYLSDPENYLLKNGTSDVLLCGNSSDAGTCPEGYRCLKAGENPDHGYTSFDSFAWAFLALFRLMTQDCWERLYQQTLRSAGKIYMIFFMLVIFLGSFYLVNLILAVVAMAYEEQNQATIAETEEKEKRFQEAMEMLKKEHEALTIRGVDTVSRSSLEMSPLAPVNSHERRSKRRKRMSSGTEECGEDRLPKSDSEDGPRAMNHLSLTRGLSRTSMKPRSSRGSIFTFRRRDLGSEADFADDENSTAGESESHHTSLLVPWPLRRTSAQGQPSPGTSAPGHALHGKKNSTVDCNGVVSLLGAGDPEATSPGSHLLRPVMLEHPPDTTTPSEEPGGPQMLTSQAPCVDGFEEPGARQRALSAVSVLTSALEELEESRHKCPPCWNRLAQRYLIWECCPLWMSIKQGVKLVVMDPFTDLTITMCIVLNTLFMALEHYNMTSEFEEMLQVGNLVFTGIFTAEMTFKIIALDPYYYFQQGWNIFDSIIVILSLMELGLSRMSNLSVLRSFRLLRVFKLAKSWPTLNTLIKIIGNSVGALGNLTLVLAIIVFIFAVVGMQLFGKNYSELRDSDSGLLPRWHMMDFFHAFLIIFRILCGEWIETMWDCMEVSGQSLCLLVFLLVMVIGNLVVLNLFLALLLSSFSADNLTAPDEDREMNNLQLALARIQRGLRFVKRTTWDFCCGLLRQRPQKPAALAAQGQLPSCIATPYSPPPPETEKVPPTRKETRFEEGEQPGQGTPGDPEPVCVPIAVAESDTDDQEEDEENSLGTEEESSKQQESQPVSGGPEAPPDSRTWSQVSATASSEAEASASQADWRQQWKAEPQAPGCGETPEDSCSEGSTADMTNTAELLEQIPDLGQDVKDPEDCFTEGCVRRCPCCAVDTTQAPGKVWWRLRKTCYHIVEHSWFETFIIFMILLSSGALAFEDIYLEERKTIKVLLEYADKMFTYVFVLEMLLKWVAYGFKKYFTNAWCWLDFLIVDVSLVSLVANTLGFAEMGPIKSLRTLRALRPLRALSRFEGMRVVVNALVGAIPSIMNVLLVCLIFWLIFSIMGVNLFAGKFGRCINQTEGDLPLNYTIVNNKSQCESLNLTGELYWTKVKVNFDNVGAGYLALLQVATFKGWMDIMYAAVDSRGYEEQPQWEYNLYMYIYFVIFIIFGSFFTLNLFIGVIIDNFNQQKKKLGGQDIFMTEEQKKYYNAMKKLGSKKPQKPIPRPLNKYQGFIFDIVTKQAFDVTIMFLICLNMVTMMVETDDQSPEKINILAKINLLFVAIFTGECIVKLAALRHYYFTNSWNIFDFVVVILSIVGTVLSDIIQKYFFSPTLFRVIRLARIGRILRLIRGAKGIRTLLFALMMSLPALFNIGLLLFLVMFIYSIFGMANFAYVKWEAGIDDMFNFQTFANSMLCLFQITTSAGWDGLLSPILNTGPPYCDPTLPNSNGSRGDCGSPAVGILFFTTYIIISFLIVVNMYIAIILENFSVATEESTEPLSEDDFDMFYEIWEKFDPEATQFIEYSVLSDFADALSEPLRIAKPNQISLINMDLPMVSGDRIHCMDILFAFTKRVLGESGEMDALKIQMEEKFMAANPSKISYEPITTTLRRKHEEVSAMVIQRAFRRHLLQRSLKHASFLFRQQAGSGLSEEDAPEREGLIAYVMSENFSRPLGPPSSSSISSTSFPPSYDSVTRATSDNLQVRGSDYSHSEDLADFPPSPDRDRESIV

[3] = biological target: T1, Sodium channel protein type 9 subunit alpha; assay: Inhibition of human Nav1.7 at -60 mV holding potential by cell-based manual patch clamp electrophysiology method
Target sequence in this assay (Q15858 whole entry): as the sequence (Q15858 whole entry) above

Homo sapiens = species: Homo sapiens; assay: Selectivity ratio of IC50 for human Nav1.5 to IC50 for human Nav1.7
[4] = biological target: CYP450 (Cytochrome P450 family, isoform not stated) (Homo sapiens, UniProt P04798+P05177+P05181+P08684+P10632+P10635+P11509+P11712+P13584+P20813+P20815+P20853+P24462+P24903+P33260+P33261+P51589+P78329+P98187+Q02928+Q08477+Q16678+Q16696+Q5TCH4+Q6VVX0+Q7Z449+Q8TAV3+Q96SQ9+Q9HB55); assay: Inhibition of human CYP450; type: ADME, protein assay
[5] = Efflux ratio of permeability from basolateral to apical side over apical to basolateral side in human Caco2 cells; type: ADME, cell-based; settings: Caco-2
[6] = Permeability across basolateral to apical side in human Caco2 cells; type: ADME, cell-based; settings: Caco-2, read-out: permeability
[7] = Permeability across apical to basolateral side in human Caco2 cells; type: ADME, cell-based; settings: Caco-2, read-out: permeability
[8] = biological target: T1, Sodium channel protein type 9 subunit alpha; assay: Ratio of IC50 for human Nav1.7 at -60 mV holding potential by cell-based IonWorks barracuda automated electrophysiology method to IC50 for human Nav1.7 at -60 mV holding potential by cell-based manual patch clamp electrophysiology method
Target sequence in this assay (Q15858 whole entry, looked up): as the sequence (Q15858 whole entry) above

[9] = biological target: T1, Sodium channel protein type 9 subunit alpha; assay: Ratio of IC50 for human Nav1.7 at -60 mV holding potential by cell-based manual patch clamp electrophysiology method to IC50 for human Nav1.7 at -60 mV holding potential by cell-based IonWorks barracuda automated electrophysiology method
Target sequence in this assay (Q15858 whole entry, looked up): as the sequence (Q15858 whole entry) above

IC50 [1] | Structure (SMILES) | IC50 [2] | other results
42 nM | Cn1cc(C2CCCCC2)c2ccc(C(=O)NS(=O)(=O)C3CC3)cc21 | 2400 nM | IC50 [3]: 55 nM; Ratio IC50 (Homo sapiens): 57
> 30000 nM | Cn1ccc2ccc(C(=O)NS(=O)(=O)C3CC3)cc21 | > 30000 nM | –
195 nM | COc1ncc(-c2c(C3CCCCC3)c3ccc(C(=O)NS(=O)(=O)C4CC4)cc3n2C)cn1 | – | IC50 [3]: 46 nM; Ratio IC50 [8]: 4
62 nM | C[C@H]1CC[C@@H](c2cn(C)c3cc(C(=O)NS(=O)(=O)C4CC4)ccc23)C1 | 5400 nM | –
48 nM | Cn1cc(C2CCCC(C)(C)C2)c2ccc(C(=O)NS(=O)(=O)C3CC3)cc21 (stereo not drawn) | 4100 nM | –
388 nM | Cn1cc(C2CCCN(C(=O)OC(C)(C)C)C2)c2ccc(C(=O)NS(=O)(=O)C3CC3)cc21 (stereo not drawn) | > 30000 nM | –
37 nM | Cc1cn(C2CCCCC2)c2ccc(C(=O)NS(=O)(=O)C3CC3)cc12 | 13000 nM | IC50 [4]: > 10000 nM; efflux ratio [5]: 2.1; Papp B→A [6]: 21.9 ×10⁻⁶ cm/s; Papp A→B [7]: 10.6 ×10⁻⁶ cm/s
> 30000 nM | Cc1cn(C)c2cc(C(=O)NS(=O)(=O)C3CC3)ccc12 | > 30000 nM | –
72 nM | Cc1cn(C2C=CCCC2)c2ccc(C(=O)NS(=O)(=O)C3CC3)cc12 (stereo not drawn) | 460 nM | –
116 nM | Cn1cc(C2CCCCCC2)c2ccc(C(=O)NS(=O)(=O)C3CC3)cc21 | – | –
> 30000 nM | Cn1cc(C2CCNCC2)c2ccc(C(=O)NS(=O)(=O)C3CC3)cc21 | > 30000 nM | –
20000 nM | Cn1cc(C2=CCOCC2)c2ccc(C(=O)NS(=O)(=O)C3CC3)cc21 | > 30000 nM | –
123 nM | Cn1c(-c2ccc(C#N)nc2)c(C2CCCCC2)c2ccc(C(=O)NS(=O)(=O)C3CC3)cc21 | – | Ratio IC50 [9]: 3; IC50 [3]: 366 nM

Continued, compound first:

Structure (SMILES) | IC50 [1] | IC50 [2] | other results
CCC(c1cn(C)c2cc(C(=O)NS(=O)(=O)C3CC3)ccc12)C(C)(C)C (stereo not drawn) | 1200 nM | > 30000 nM | –
Cn1cc(C2CCC(C(C)(C)C)CC2)c2ccc(C(=O)NS(=O)(=O)C3CC3)cc21 (stereo not drawn) | 45 nM | – | –
Cn1cc(C2(C)CCCCO2)c2ccc(C(=O)NS(=O)(=O)C3CC3)cc21 (stereo not drawn) | > 30000 nM | > 30000 nM | –
Cn1c(-c2cnc(N3CCOCC3)nc2)c(C2CCCCC2)c2ccc(C(=O)NS(=O)(=O)C3CC3)cc21 | – | – | IC50 [3]: 30 nM
Cn1cc(C2C3CC4CC2CN(C4)C3)c2ccc(C(=O)NS(=O)(=O)C3CC3)cc21 (stereo not drawn) | > 30000 nM | > 30000 nM | –
C[C@@H]1CC[C@@H](c2cn(C)c3cc(C(=O)NS(=O)(=O)C4CC4)ccc23)C1 | 509 nM | > 30000 nM | –
Cn1cc(C2CCCCC2)c2cc(F)c(C(=O)NS(=O)(=O)C3CC3)cc21 | 30 nM | > 10000 nM | IC50 [4]: > 10000 nM; efflux ratio [5]: 1.2; Papp B→A [6]: 16 ×10⁻⁶ cm/s; IC50 [3]: 14 to 30 nM; Papp A→B [7]: 12.9 ×10⁻⁶ cm/s
Cn1cc(C2CCN(C(=O)OC(C)(C)C)CC2)c2ccc(C(=O)NS(=O)(=O)C3CC3)cc21 | 388 nM | > 30000 nM | IC50 [3]: 383 nM
Cn1cc(C2CCCNC2)c2ccc(C(=O)NS(=O)(=O)C3CC3)cc21 (stereo not drawn) | > 30000 nM | > 30000 nM | –
Cn1cc(C(C)(C)C)c2ccc(C(=O)NS(=O)(=O)C3CC3)cc21 | 1100 nM | > 30000 nM | –
COc1ncc(-c2c(C3CCCCC3)c3ccc(C(=O)NS(=O)(=O)C4CC4)cc3n2C)cc1C#N | – | – | IC50 [3]: 85 nM
Cn1cc(C2=CCN(C(=O)OC(C)(C)C)CC2)c2ccc(C(=O)NS(=O)(=O)C3CC3)cc21 | 635 nM | > 30000 nM | –
Cn1cc(C2=CCNCC2)c2ccc(C(=O)NS(=O)(=O)C3CC3)cc21 | > 30000 nM | > 30000 nM | –
Cn1c(-c2ccoc2)c(C2CCCCC2)c2ccc(C(=O)NS(=O)(=O)C3CC3)cc21 | 440 nM | – | –
Cn1c(-c2ccc(N3CCCC3)nc2)c(C2CCCCC2)c2ccc(C(=O)NS(=O)(=O)C3CC3)cc21 | – | – | IC50 [3]: 38 nM
CN1CCC(c2cn(C)c3cc(C(=O)NS(=O)(=O)C4CC4)ccc23)CC1 | > 30000 nM | > 30000 nM | –
O=C(NS(=O)(=O)C1CC1)c1ccc2c(C3CCCCC3)c3n(c2c1)CCCCC3O (stereo not drawn) | > 30000 nM | – | –
Cn1cc(C2C3CC4CC(C3)CC2C4)c2ccc(C(=O)NS(=O)(=O)C3CC3)cc21 (stereo not drawn) | 79 nM | 8400 nM | –
Cn1cc(C2CCC2)c2ccc(C(=O)NS(=O)(=O)C3CC3)cc21 | 360 nM | 6700 nM | –
Cc1nn(-c2cnc(OCC3(C)CC3)c(Cl)c2)c2ccc(C(=O)NS(C)(=O)=O)cc12 | – | – | IC50 [3]: 8 nM
O=C(NS(=O)(=O)C1CC1)c1ccc2c(C3CCCCC3)c3n(c2c1)CCCCC3=O | 1500 nM | – | –
